This note sets out measurements from ChEMBL document CHEMBL1157806, “1-(3-Deoxy-3-fluoro-beta-d-glucopyranosyl) pyrimidine derivatives as inhibitors of glycogen phosphorylase b: Kinetic, crystallographic and modelling studies” (Bioorg Med Chem, 2010).

As a reminder, the pKa is the negative logarithm of the acid dissociation constant. Low values mean a stronger acid or weaker base, high ones a weaker acid or stronger base. Usually Ki stands for a measure of affinity in units of concentration, obtained from inhibition or displacement. Read a high Ki as a looser hold on the target.

Data set [1] in a line: Dissociation constant, pKa of the compound. The data set is classed as physicochemical.
The target in data set [2] is T1, Glycogen phosphorylase, muscle form (Oryctolagus cuniculus, UniProt P00489).
T1 sequence (P00489 whole entry): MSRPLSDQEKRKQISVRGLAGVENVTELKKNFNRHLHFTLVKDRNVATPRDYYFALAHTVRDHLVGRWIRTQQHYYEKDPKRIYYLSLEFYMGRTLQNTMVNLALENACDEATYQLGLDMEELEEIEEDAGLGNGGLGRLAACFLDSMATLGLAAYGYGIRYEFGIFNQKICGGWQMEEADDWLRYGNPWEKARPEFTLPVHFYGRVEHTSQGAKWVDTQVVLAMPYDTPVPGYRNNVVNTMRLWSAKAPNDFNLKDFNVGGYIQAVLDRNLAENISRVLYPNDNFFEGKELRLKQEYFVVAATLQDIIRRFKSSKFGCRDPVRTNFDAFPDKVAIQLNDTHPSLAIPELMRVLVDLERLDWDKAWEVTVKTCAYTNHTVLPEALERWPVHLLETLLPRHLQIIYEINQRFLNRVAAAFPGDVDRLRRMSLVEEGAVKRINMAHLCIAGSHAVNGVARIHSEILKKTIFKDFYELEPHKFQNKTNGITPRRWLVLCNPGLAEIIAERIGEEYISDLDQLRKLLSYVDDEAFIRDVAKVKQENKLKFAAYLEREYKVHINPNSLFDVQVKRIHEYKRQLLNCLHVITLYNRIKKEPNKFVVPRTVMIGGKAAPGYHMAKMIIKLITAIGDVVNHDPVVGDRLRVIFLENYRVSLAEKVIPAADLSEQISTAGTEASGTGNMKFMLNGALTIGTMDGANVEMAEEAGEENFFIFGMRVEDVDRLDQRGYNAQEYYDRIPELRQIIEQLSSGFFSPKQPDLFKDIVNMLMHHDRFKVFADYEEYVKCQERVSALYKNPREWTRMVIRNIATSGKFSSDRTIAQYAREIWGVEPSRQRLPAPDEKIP
Nature of the data set: Inhibition of rabbit muscle glycogen phosphorylase inactive form b.

In data set [1], `O=c1[nH]c(=O)n([C@@H]2O[C@H](CO)C(O)[C@H](F)C2O)cc1F` (stereo partly drawn) showed a pKa of 7.5.
In data set [2], `O=c1ccn([C@@H]2O[C@H](CO)[C@@H](O)[C@H](O)[C@H]2O)c(=O)[nH]1` gave an inhibitory constant (Ki) of 6.1 µM.
In data set [2], `Nc1ccn([C@@H]2O[C@H](CO)[C@@H](O)[C@H](O)[C@H]2O)c(=O)n1` showed a Ki of 7.7 µM.
